Oligonucleotides are written 5' to 3', each unit as a sugar letter and its base; * is a phosphorothioate linkage, no mark a phosphodiester; rarer units and linkages stand in square brackets, end groups in braces. Plain capitals give the bases only. d = 2'-deoxy (DNA); {P} = phosphate
Experiments:
[1] = tested on: p95/Nbs1; assay: Modification / phosphorylation of p95/Nbs1 (western blot); type: cell-based, human
Method: Cells were plated at a density of 180,000 cells/ml in RPMI 1640 medium supplemented with 3% FBS. Cells were treated with 40 μM of either of the oligonucleotides for 72 hours. Cells were then collected, washed and fixed for 30 minutes in 4% paraformaldehyde and then permeabilized with 0.1% Triton X-100 for 2 minutes. The TUNEL assay was carried out with components and instructions of the In Situ Cell Death Detection Kit using fluorescein-labeled dUTP from Boehringer Mannheim. TUNEL-positive cells were detected by FACS analysis and confocal microscopy. Cellular Uptake of Oligonucleotides For confocal analysis, Jurkat cells were plated on Permanox chamber slides (Lab-Tek, Naperville, Ill.) and treated for 4 hours with fluorescein phosphoramidite (FAM)-labeled oligonucleotides (Research Genetics, Inc., Huntsville, Ala.). […] Uptake of the oligonucleotides was assessed in 5–10 μm sections with a Carl Zeiss LSM 510 confocal laser microscope. […] Fluorescence was measured on the FL-1 channel. […] Antibody Ab-6 (DO-1 clone, Oncogene Research Products, Cambridge, Mass.) detected p53; antibody KH95 (Santa Cruz Biotechnology, Inc., Santa Cruz, Calif.) detected E2F1; antibody Ab-4 (Oncogene Research products) detected p73. Phospho-p53 (serine 15) was detected using the #9284 polyclonal antibody and phospho-p95/Nbs1 (serine 343) was detected by a phospho-p95/Nbs1-specific polyclonal antibody, both antibodies from Cell Signaling Technology (Beverly, Mass.). p95/Nbs1 antibody (#NB-100-143, Novus Biologicals, Littleton, Colo.) and an actin antibody (I-19, Santa Cruz Biotechnology, Santa Cruz, Calif.) were also used. […] After the indicated times, total protein was collected and analyzed by 8% PAGE and western blot using a polyclonal antibody to p95/Nbs1 (#NB-100-143, Novus Biologicals, Littleton, Colo.). […] Telomere length was determined essentially as described by van Steensel and de Lange (van Steensel, B. and T. de Lange. 1997, Nature 385: 740–743) using the Telo TAGGG Telomere Length Assay from Roche Molecular Biochemicals (Indianapolis, Ind.) and the protocol supplied by the manufacturer. […]

[2] = tested on: telomere 3′ overhang; assay: 3′ overhang assay in fibroblasts; type: cell-based, human; conditions: 40 μM; up to 7 days
[3] = tested on: tumor necrosis factor alpha gene (TNFα); assay: Northern blot of TNFα in keratinocytes; type: cell-based, human; conditions: 24–72 hours
From the text: This immunomodulatory cytokine, known to be induced by UV irradiation, may thus be induced by T2. Use of locally applied DNA fragments, deoxynucleotides, dinucleotides, or dinucleotide dimers is useful in immunomodulation of cutaneous reactions and in treatment or prevention of diseases or conditions involving immune mediators.

[4] = tested on: UV-damaged CAT reporter plasmid in human keratinocytes; assay: Repair of UV-damaged CAT reporter plasmid in keratinocytes; type: cell-based; conditions: 100 μM for five days before transfection; plasmid 100 mJ/cm^2 UVB
From the text: Expression of a UV-damaged reporter plasmid containing the bacterial chloramphenicol acetyltransferase (CAT) gene under the control of SV40 promoter and enhancer sequences was previously shown to detect decreased DNA repair capacity in human lymphocytes associated with aging and early-onset skin cancers. This reporter plasmid was used to measure the DNA repair capacity of normal neonatal human skin-derived fibroblasts and keratinocytes.
Keratinocytes from newborns were established as described (Stanulis-Praeger, B. M. and Gilchrest, B. A., J. Cell. Physiol. 139:116–124 (1989)) using a modification of the method of Rheinwald and Green (Gilchrest, B. A. et al., J. Invest. Dermatol. 101:666–672 (1993)). First-passage keratinocytes were maintained in a non-differentiating low Ca^2+ medium (K-Stim, Collaborative Biomedical Products, Bedford, Mass.). […] CAT enzyme activity was determined using the liquid scintillation counting protocol and components of the assay system kit. […] Protein concentration in the cell extracts was determined by the method of Bradford (Anal. Biochem. 72:248 […]). CAT activity was expressed as c.p.m./100 μg protein and is represented as percent activity of cells transfected with sham-irradiated, non-damaged, plasmid.

Row | Substance | shift in p95/Nbs1 migration ([1]; Jurkat cells, 48, 72 and 96 hours) | shift in p95/Nbs1 migration ([1]; SCC12F cells) | phosphorylation of p95/Nbs1 (phospho-specific antibody) ([1]; fibroblasts) | degradation of the telomere 3′ overhang [2] | TNFα gene expression (Northern blot) [3] | CAT activity relative to sham-irradiated transfected controls [4]
1 | pGTTAGGGTTAG (DNA {P}-dGdTdTdAdGdGdGdTdTdAdG) [SEQ ID NO: 5] | detects such a shift in p95/Nbs1 migration | respond identically | phosphorylation of p95/Nbs1 is induced | did not result in degradation of the telomere 3′ overhang | – | –
2 | thymidine dinucleotide [pTpT] | – | – | – | – | induction of the tumor necrosis factor alpha gene | more than 50%

Source: US7033829B2, “Method to inhibit cell growth using oligonucleotides” (Trustees of Boston University, priority 2000, dated 2006)
